From patent publication US20120115947A1, “COMBINATION/ASSOCIATION OF ADAPALENE AND BENZOYL PEROXIDE FOR TREATING ACNE LESIONS” (Galderma Research & Development, priority 2006, published 2012)

How the values were obtained:
[1] = system: TPA-induced ear edema; test: Anti-inflammatory evaluation in TPA-induced ear edema model; format: in vivo, Balb/c mice; details: single topical application, T+6 hours
Protocol: Evaluation of the Anti-Inflammatory in Ear Edema Model on Balb/c Mice
The study was carried out with […] ([…]) female 9 weeks aged Balb/c ByJlc mice.
The Edema was induced by a single application of 20 μl of TPA dissolved in acetone at 0.01%.
The treatment was administrated by single topical application of tested compounds dissolved in TPA at 0.01% (groups 3, 4, 5, 6 and 7) and dissolved in TPA 0.01%+BPO (groups 8, 9 and 10).
The treatments activity was measured by inflammation evaluation with ear thickness at T+6 hours.

[2] = system: patients suffering from acne; test: Multi-centre, randomized, double-blind clinical study of adapalene + BPO topical gel versus monads and vehicle; format: in vivo; details: adapalene 0.1%, BPO 2.5%; for Reduction in lesions (all lesions): 12 weeks, gels once a day, rounded values of the text; for Degree of success (percentage of patients clear or almost clear): week 12, ITT (LOCF), gels once a day for 12 weeks
Protocol: A clinical study for confirmation of efficacy was performed for a topical gel combining adapalene+benzoyl peroxide (BPO). This gel has the following formulation (expressed as % weight/total weight): [table] Protocol: The clinical study was a multi-centre, randomized, double-blind study in parallel groups, to evaluate the tolerance and the efficacy of the above formulation, in comparison with its own individual active substances placed at the same doses in gels of the same formula as that of the fixed combination (individual formulae referred to as “monads”) and in comparison with the gel vehicle (placebo formula): adapalene gel (0.1%), BPO gel (2.5%) and vehicle gel. All the treatments were applied once a day for 12 weeks, to 517 patients suffering from acne. The main efficacy criteria were: the degree of success, defined as the percentage of patients considered as being “clear”, i.e., the patient has no more acne lesions (neither comedones nor inflammatory lesions), reflecting an improvement in the patient's clinical condition, or “almost clear” on the evaluation scale; the reduction of the percentage of inflammatory and non-inflammatory lesions after 12 weeks of treatment.

| SMILES | Anti-inflammatory effect on TPA-induced ear edema (in words) [1] | Reduction in lesions (all lesions) [2] | Degree of success (percentage of patients clear or almost clear) [2] |
| --- | --- | --- | --- |
| COc1ccc(-c2ccc3cc(C(=O)O)ccc3c2)cc1C12CC3CC(CC(C3)C1)C2 [Adapalene, 6-[3-(1-Adamantyl)-4-methoxyphenyl]-2-naphthoic acid] | low anti-inflammatory effect | 35% | 16% |
| O=C(OOC(=O)c1ccccc1)c1ccccc1 [BPO, benzoyl peroxide] | slight anti-inflammatory effect | 36% | 15% |
